This assay deals with T1, JAK3 (Homo sapiens, UniProt P52333).
T1 sequence (P52333 1-1124): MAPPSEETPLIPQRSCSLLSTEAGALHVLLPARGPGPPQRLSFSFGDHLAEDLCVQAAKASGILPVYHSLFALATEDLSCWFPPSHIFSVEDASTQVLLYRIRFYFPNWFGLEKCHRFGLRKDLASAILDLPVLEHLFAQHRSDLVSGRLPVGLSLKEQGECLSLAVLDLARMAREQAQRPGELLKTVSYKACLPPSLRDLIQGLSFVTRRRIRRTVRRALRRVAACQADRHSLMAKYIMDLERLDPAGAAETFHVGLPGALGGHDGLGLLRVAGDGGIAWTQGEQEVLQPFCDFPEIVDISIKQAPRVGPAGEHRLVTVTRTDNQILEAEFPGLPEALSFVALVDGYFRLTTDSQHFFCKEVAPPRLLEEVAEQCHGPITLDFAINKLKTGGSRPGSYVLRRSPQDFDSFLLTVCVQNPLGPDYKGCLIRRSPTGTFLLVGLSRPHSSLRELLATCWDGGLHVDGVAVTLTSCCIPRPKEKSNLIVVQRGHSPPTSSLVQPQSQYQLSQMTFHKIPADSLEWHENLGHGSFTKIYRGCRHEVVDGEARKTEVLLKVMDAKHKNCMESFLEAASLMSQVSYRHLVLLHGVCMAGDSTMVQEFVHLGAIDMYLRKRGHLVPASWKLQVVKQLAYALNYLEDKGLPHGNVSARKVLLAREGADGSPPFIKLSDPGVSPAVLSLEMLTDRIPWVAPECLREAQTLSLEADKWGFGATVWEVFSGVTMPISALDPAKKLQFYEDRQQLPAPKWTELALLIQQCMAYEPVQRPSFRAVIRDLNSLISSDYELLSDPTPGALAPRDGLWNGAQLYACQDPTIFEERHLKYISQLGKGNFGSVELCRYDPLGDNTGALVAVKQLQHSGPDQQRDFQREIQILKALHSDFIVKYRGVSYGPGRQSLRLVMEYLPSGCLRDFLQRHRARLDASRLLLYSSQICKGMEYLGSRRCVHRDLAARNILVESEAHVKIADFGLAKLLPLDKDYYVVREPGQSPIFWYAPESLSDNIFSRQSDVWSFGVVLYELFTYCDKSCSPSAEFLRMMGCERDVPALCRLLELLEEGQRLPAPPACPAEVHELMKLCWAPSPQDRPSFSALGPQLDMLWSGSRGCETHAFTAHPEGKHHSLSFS
The assay can be described thus: JAK3 IL-2-NK-92/pSTAT5 cell-based assay (Cellomics ArrayScan HCS). Also noted: host or cells: NK-92 (natural killer) cells. An excerpt:
IL-2 activates the JAK3 pathway in natural killer (NK) cells to drive the NK and CD8 lymphocyte proliferation. Therefore, IL-2 stimulated NK92/pSTAT5 cell-based assay enables the evaluation of the JAK3 cellular activity of JAK compounds in vitro.
NK-92 (natural killer) cells (ATCC, Manassas, Va.) are maintained in minimum essential medium (MEM) Alpha with 15% fetal bovine serum, 15% Horse Serum and 1× antibiotic/antimycotic (Invitrogen, Carlsbad, Calif.). The medium is supplemented with IL-2 (R&D systems, Minneapolis, Minn.) for a final concentration of 4 ng/mL. Cells are kept at 37° C. with 5% CO2. Cells are starved in serum free medium to remove endogenous growth factors. NK-92 cells are counted and collected to seed 2×10^7 cells per 96-well plate at a density of 2×10^5 cells per well. The cells are rinsed twice with unsupplemented MEM Alpha (MEM Alpha) before suspending cells at a final concentration of 8×10^5 cells/mL in MEM Alpha with 0.6% serum (0.3% FBS, 0.3% horse serum). The diluted cells are added back to tissue culture flasks and incubated overnight at 37° C. Test compound is prepared in 100% DMSO at 10 mM concentration. […] An aliquot of 200 μL of 1 to 10 dilution of Mouse anti-pSTAT5 (pY694) Alexa Fluor 647® in fluorescence activated cell sorting (FACS) buffer is added to the cells. […] Mean fluorescent intensity data are collected and analyzed using Cellomics Arrayscan® VTi. […]

The IC50 is the concentration that inhibits the measured activity by half. For the molecule `Cc1cc(Nc2ccc3ncn([C@@H]4CCc5ccc(F)cc54)c3n2)[nH]n1.Cl.Cl` [Example 1, 3-[(1R)-6-fluoro-2,3-dihydro-1H-inden-1-yl]-N-(3-methyl-1H-pyrazol-5-yl)-3H-imidazo[4,5-b]pyridin-5-amine dihydrochloride], the half-inhibitory concentration (IC50) (NK-92 cells, IL-2 at 0.5 ng/mL, relative IC50, n=61, read-out: IC50, inhibits JAK3 (pSTAT5)) came to 228 nM. Also, under “from the two cell-based assays (EPO-TF1/pSTAT5 and IL-2-NK-92/pSTAT5)”, the “ratio of JAK3/JAK2 IC50” value is reported as “more than six-fold”.

The values are drawn from patent US9062050B2, “Inhibitor of JAK1 and JAK2” (Eli Lilly and Company, priority 2012, dated 2015).
